# Laboratory results: PMC9982066, “Inhibition of Ehrlichia chaffeensis infection by cell-permeable macrocyclic peptides that bind type IV secretion effector Etf-1” (PNAS Nexus, 2023)
# Entries after “also recorded” stand apart in the source; their conditions may differ. Starred links: 1 amine or outer side, 2 acyl side, 3 side chain; linkers in the order of their positions; H or OH if unused. Positions of bridges follow the written chain, without caps; N, C: chain ends. Non-standard residues stand in square brackets, D forms with d. Residues, ends and D or L forms follow the SMILES beside them. Trimesoyl = O=C(c1cc(C(=O)[*:2])cc(C(=O)[*:3])c1)[*:1]; d2Nal = N[C@H](Cc1ccc2ccccc2c1)C(=O)O; Dap = NC[C@H](N)C(=O)O
# Columns and labels:
# Etf-1 = Etf-1 (Ehrlichia chaffeensis, UniProt Q2GG12); assay: FP assay of Etf-1 binding with FAM-labeled peptides
# Etf-1, sequence (Q2GG12 entry or part of it): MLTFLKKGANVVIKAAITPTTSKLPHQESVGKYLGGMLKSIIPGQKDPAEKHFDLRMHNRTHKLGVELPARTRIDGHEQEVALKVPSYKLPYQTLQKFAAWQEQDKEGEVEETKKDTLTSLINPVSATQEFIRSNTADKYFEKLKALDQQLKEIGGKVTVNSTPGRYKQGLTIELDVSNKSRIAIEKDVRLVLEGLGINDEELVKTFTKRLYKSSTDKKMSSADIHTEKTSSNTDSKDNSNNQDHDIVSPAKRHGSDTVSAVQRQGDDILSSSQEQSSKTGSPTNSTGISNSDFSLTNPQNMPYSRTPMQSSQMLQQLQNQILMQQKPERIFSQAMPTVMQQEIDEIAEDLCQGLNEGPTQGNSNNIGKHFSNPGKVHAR
# E. chaffeensis [1] = assay: morphological examination of E. chaffeensis infection of THP-1 cells by Diff-Quik staining
# THP-1 cells = assay: CellTiter-Glo luminescent cell viability assay; details: 2-day treatment
# BECN1 binding to Etf-1 = assay: streptavidin magnetic beads pull-down of BECN1 with biotin-Etf-1, Western blot; type: biochemical; details: 10 µM peptide
# E. chaffeensis [2] = assay: E. chaffeensis infection of RF/6A cells (numbers and sizes of morulae); type: cell-based, Ehrlichia chaffeensis; details: 10 μM, 2 days
compound,measurement,setting,value
"CC(C)C[C@H]1NC(=O)[C@H](CO)NC(=O)[C@H]2CCCN2C(=O)[C@H](CCC(N)=O)NC(=O)[C@H](Cc2c[nH]cn2)NC(=O)[C@H](Cc2ccc(O)cc2)NC(=O)c2cc3cc(c2)C(=O)NC[C@H](NC1=O)C(=O)N[C@@H](Cc1ccccc1)C(=O)N[C@H](Cc1ccc2ccccc2c1)C(=O)N[C@H](CCCNC(=N)N)C(=O)N[C@@H](CCCNC(=N)N)C(=O)N[C@H](CCCNC(=N)N)C(=O)N[C@@H](CCCNC(=N)N)C(=O)N[C@H](C(N)=O)CNC3=O [Peptide B7, TMA-Tyr-His-Gln-pro-Ser-leu-Dap-Phe-nal-arg-Arg-arg-Arg-Dap] (YHQ[dP]S[dL][Dap]F[d2Nal][dR]R[dR]R[Dap]-NH2; linker N-7-14 via Trimesoyl)",Kd,Etf-1,6.5 ± 0.7 µM
same,E. chaffeensis infection (numbers and sizes of morulae),"E. chaffeensis [1]; THP-1 cells, Fig. S4 (with Figs. 5, S3)",significantly inhibited; also recorded: potent inhibition
same,cytotoxicity (cell lysis in treated groups),E. chaffeensis [1]; THP-1 host cells,least cytotoxicity
same,cell viability,THP-1 cells; 20 μM,slightly reduced the cell viability
same,cytotoxicity,THP-1 cells; up to 10 μM,no cytotoxicity
same,disruption of BECN1 binding to Etf-1,BECN1 binding to Etf-1; compared to DMSO control,disrupted BECN1 binding to Etf-1
same,BECN1/Etf-1 Ratio,"BECN1 binding to Etf-1; band intensities, DMSO control set as 1, Fig. 8B",0.20
same,inhibition of E. chaffeensis infection,E. chaffeensis [2],significantly inhibited
